Measurements taken from US20230365537A1, “POLO LIKE KINASE 4 INHIBITORS” (ORIC Pharmaceuticals, Inc., priority 2021, published 2023).

Assays:
human recombinant PLK4 = human recombinant PLK4 (Homo sapiens (Human), UniProt O00444); experiment: PLK4 Biochemical Assay (ADP-Glo); settings: 0.5 nM PLK4, 8.0 µM ATP, 4.7 µM MBP, 6 hours at RT
Method: (§1) Activity of human recombinant PLK4 (ThermoFisher, cat #PV6396) was measured by quantification of adenosine diphosphate (ADP) using the ADP-Glo Kinase Assay Kit (Promega, cat #V9102). […] 5 µL of 1.0 nM PLK4 protein in assay buffer (50 mM HEPES, pH 7.5, 0.01% Brij-35, 0.01% BSA, 10 mM MgCl2, 1 mM EGTA, 1 mM DTT) was added to the plates. Test compounds and PLK4 were incubated for 15 minutes at room temperature (RT). […] Reactions were stopped and the remaining ATP depleted by adding 10 µL of ADP-Glo reagent (Promega, cat#V912B) and incubating for 40 minutes at RT. The simultaneous conversion of the remaining ADP to ATP and measurement of the newly synthesized ATP was achieved by addition of 20 µL Kinase Detection reagent (Promega, cat #V914B), incubation for 30 min at RT, and luminescence detection using the EnVision plate reader (PerkinElmer). […] The IC50 values reported in Table 2 were determined using four parameter non-linear regression curve fit.

[1] = target: human recombinant Aurora A (Homo sapiens (Human), UniProt O14965); experiment: Aurora A Kinase Biochemical Assay (ADP-Glo); settings: ratio of Aurora A IC50 to PLK4 IC50 (selectivity)
Method: as §1, with “Aurora A” for “PLK4”, “#PR5935A)” for “#PV6396)”, “5.0” for “1.0”, “Aurora A” for “PLK4 protein”, “10uL” for “10 µL”

[2] = target: human recombinant Aurora B (Homo sapiens (Human), UniProt Q96GD4); experiment: Aurora B Kinase Biochemical Assay (ADP-Glo); settings: ratio of Aurora B IC50 to PLK4 IC50 (selectivity)
Method: as §1, with “Aurora B” for “PLK4”, “#PR9210B)” for “#PV6396)”, “20” for “1.0”, “Aurora B” for “PLK4 protein”, “10uL” for “10 µL”

Sequence of human recombinant Aurora B (Q96GD4 whole entry): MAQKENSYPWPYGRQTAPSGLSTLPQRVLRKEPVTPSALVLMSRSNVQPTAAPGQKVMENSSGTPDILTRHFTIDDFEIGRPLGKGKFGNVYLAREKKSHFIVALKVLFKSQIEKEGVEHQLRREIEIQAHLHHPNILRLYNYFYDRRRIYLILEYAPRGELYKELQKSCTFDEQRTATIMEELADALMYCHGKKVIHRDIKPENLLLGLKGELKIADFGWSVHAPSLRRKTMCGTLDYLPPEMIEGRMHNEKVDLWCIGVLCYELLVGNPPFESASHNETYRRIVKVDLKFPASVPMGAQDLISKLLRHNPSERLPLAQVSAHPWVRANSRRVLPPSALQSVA
Sequence of human recombinant PLK4 (O00444 whole entry): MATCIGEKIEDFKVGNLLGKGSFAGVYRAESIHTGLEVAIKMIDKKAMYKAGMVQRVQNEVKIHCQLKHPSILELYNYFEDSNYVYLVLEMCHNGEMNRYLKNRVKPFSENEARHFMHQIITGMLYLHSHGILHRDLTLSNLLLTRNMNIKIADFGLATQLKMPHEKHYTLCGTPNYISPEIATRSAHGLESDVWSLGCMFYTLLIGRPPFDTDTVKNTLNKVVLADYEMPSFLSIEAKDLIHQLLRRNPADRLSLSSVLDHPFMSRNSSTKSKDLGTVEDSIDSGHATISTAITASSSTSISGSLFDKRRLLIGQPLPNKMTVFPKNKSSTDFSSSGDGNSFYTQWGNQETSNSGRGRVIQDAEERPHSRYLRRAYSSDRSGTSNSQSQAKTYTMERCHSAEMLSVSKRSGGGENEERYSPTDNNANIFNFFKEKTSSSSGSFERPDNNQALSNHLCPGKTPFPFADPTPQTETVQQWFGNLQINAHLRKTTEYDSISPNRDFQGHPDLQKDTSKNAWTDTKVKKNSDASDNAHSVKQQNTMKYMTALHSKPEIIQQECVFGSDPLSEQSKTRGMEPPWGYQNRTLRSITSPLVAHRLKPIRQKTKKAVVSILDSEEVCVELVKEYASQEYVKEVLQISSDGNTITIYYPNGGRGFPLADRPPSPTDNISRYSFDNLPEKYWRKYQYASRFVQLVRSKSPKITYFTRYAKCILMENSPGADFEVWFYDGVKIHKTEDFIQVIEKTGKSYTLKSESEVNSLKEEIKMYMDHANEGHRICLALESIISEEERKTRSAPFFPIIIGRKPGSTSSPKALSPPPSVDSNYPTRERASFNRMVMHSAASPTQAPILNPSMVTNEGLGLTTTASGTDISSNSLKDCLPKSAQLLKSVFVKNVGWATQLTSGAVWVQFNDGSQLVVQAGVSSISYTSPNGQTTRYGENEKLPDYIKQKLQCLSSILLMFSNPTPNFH
Sequence of human recombinant Aurora A (O14965 whole entry): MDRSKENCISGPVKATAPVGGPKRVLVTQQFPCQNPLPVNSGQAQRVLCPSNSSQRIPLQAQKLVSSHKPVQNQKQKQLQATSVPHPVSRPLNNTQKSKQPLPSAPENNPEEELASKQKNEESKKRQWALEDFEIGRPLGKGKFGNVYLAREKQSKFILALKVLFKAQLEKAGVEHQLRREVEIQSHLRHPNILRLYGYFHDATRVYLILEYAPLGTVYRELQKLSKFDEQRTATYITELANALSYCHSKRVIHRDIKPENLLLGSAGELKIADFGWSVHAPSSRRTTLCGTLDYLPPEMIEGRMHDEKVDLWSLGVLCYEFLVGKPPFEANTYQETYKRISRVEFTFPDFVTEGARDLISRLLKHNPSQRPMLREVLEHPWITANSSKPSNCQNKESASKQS

With `COc1ccc2c(c1)[C@]1(C[C@H]1c1ccc3c(Nc4ncc(S(=O)(=O)C(F)F)cc4OC)n[nH]c3c1)C(=O)N2` [Example 280, (1R,2S)-2-{3-[(5-difluoromethanesulfonyl-3-methoxypyridin-2-yl)amino]-1H-indazol-6-yl}-5′-methoxy-1′H-spiro[cyclopropane-1,3′-indol]-2′-one] the IC50 (human recombinant PLK4) was 1.93 nM, the “[Aurora A IC50 (nM)]/[PLK4 IC50 (nM)]” value [1] was 727.2256 and the “[Aurora B IC50 (nM)]/[PLK4 IC50 (nM)]” value [2] was 309.1097.
With `COc1ccc2c(c1)[C@]1(C[C@H]1c1ccc3c(Nc4nccc5c4OCC5)n[nH]c3c1)C(=O)N2` [Example 32, (1R,2S)-2-{3-[(2,3-dihydrofuro[2,3-c]pyridin-7-yl)amino]-1H-indazol-6-yl}-5′-methoxyspiro[cyclopropane-1,3′-indol]-2′(1′H)-one] the IC50 (human recombinant PLK4) was 3.94 nM, the “[Aurora A IC50 (nM)]/[PLK4 IC50 (nM)]” value [1] was 911.8842 and the “[Aurora B IC50 (nM)]/[PLK4 IC50 (nM)]” value [2] was 17.5546.
With `Cc1ncc(OC(F)F)c(Nc2n[nH]c3cc([C@@H]4C[C@@]45C(=O)Nc4ccc(F)cc45)ccc23)n1` [Example 135, (1R,2S)-2-(3-{[5-(difluoromethoxy)-2-methylpyrimidin-4-yl]amino}-1H-indazol-6-yl)-5′-fluorospiro[cyclopropane-1,3′-indol]-2′(1′H)-one] the IC50 (human recombinant PLK4) was 70.8 nM, the “[Aurora A IC50 (nM)]/[PLK4 IC50 (nM)]” value [1] was 28.3312 and the “[Aurora B IC50 (nM)]/[PLK4 IC50 (nM)]” value [2] was 62.6112.
With `COc1ccc2c(c1)[C@]1(C[C@H]1c1ccc3c(Nc4cc(F)c(C(=O)N(C)C)cc4OC)n[nH]c3c1)C(=O)N2` [Example 206, 2-fluoro-5-methoxy-4-({6-[(1R,2S)-5′-methoxy-2′-oxo-1’,2′-dihydrospiro[cyclopropane-1,3′-indol]-2-yl]-1H-indazol-3-yl}amino)-N,N-dimethylbenzamide] the IC50 (human recombinant PLK4) was 0.806 nM, the “[Aurora A IC50 (nM)]/[PLK4 IC50 (nM)]” value [1] was 618.8586 and the “[Aurora B IC50 (nM)]/[PLK4 IC50 (nM)]” value [2] was 80.2233.
In the case of `COc1ccc2c(c1)[C@@]1(C[C@@H]1c1ccc3c(Nc4ncncc4OC)n[nH]c3c1)C(=O)N2` [Example 8, (IS,2R)-5′-Methoxy-2-{3-[(5-methoxypyrimidin-4-yl)amino]-1H-indazol-6-yl}spiro[cyclopropane-1,3′-indol]-2′(1′H)-one], the IC50 (human recombinant PLK4) is reported as 492 nM, the “[Aurora A IC50 (nM)]/[PLK4 IC50 (nM)]” value [1] is reported as 17.61 and the “[Aurora B IC50 (nM)]/[PLK4 IC50 (nM)]” value [2] is reported as 32.99.
`CCOc1cncnc1Nc1n[nH]c2cc([C@@H]3C[C@@]34C(=O)Nc3ccc(OC)cc34)ccc12` [Example 5, (1R,2S)-2-[3-[(5-ethoxypyrimidin-4-yl)amino]-1H-indazol-6-yl]-5′-methoxy-spiro[cyclopropane-1,3′-indoline]-2′-one] was tested, and the IC50 (human recombinant PLK4) was 2.18 nM.
With `COc1ccc2c(c1)[C@]1(C[C@H]1c1ccc3c(Nc4nc(C)ncc4OC(C)C)n[nH]c3c1)C(=O)N2` [Example 136, (1R,2S)-5′-methoxy-2-[3-({2-methyl-5-[(propan-2-yl)oxy]pyrimidin-4-yl}amino)-1H-indazol-6-yl]spiro[cyclopropane-1,3′-indol]-2′(1′H)-one] the IC50 (human recombinant PLK4) was 19.4 nM, the “[Aurora A IC50 (nM)]/[PLK4 IC50 (nM)]” value [1] was 2573.3401 and the “[Aurora B IC50 (nM)]/[PLK4 IC50 (nM)]” value [2] was 979.4132.
In the case of `COc1ccc2c(c1)[C@]1(C[C@H]1c1ccc3c(Nc4cc5oc(C)nc5cc4Cl)n[nH]c3c1)C(=O)N2` [Example 252, (1R,2S)-2-{3-[(5-chloro-2-methyl-1,3-benzoxazol-6-yl)amino]-1H-indazol-6-yl}-5′-methoxyspiro[cyclopropane-1,3′-indol]-2′(1′H)-one], the IC50 (human recombinant PLK4) is reported as 9.28 nM, the “[Aurora A IC50 (nM)]/[PLK4 IC50 (nM)]” value [1] is reported as 518.4227 and the “[Aurora B IC50 (nM)]/[PLK4 IC50 (nM)]” value [2] is reported as 365.8694.
`COc1ccc2c(c1)[C@]1(C[C@H]1c1ccc3c(Nc4ncncc4OC)n[nH]c3c1)C(=O)N2` (racemic) [Example 1, racemic-5′-Methoxy-2-{3-[(5-methoxypyrimidin-4-yl)amino]-1H-indazol-6-yl}spiro[cyclopropane-1,3′-indol]-2′(1′H)-one] showed an IC50 (human recombinant PLK4) of 3.5 nM.
`COc1ccc2c(c1)[C@]1(C[C@H]1c1ccc3c(Nc4ncnc5c4CCC5)n[nH]c3c1)C(=O)N2` [Example 15, (1R,2S)-2-{3-[(6,7-dihydro-5H-cyclopenta[d]pyrimidin-4-yl)amino]-1H-indazol-6-yl}-5′-methoxyspiro[cyclopropane-1,3′-indol]-2′(1′H)-one] was tested, and the IC50 (human recombinant PLK4) was 45.7 nM.
For `COc1ccc2c(c1)[C@]1(C[C@H]1c1ccc3c(Nc4cccnc4OC)n[nH]c3c1)C(=O)N2` [Example 24], the IC50 (human recombinant PLK4) was 2.25 nM.
In the case of `COc1ccc2c(c1)[C@]1(C[C@H]1c1ccc3c(Nc4cccc5c4OC[C@H]5O)n[nH]c3c1)C(=O)N2` (stereo in doubt) [Example 28], the IC50 (human recombinant PLK4) is reported as 0.375 nM.
`COc1ccc2c(c1)[C@]1(C[C@H]1c1ccc3c(Nc4ccncc4OC)n[nH]c3c1)C(=O)N2` [Example 19, (1R,2S)-5′-methoxy-2-{3-[(3-methoxypyridin-4-yl)amino]-1H-indazol-6-yl}spiro[cyclopropane-1,3′-indol]-2′(1′H)-one] gave an IC50 (human recombinant PLK4) of 24.8 nM.
For `COc1ccc2c(c1)[C@]1(C[C@H]1c1ccc3c(Nc4cnccc4OC)n[nH]c3c1)C(=O)N2` [Example 18], the IC50 (human recombinant PLK4) was 22.9 nM.
With `COc1ccc2c(c1)[C@]1(C[C@H]1c1ccc3c(Nc4ncncc4C(F)(F)F)n[nH]c3c1)C(=O)N2` [Example 22, (1R,2S)-5′-methoxy-2-(3-{[5-(trifluoromethyl)pyrimidin-4-yl]amino}-1H-indazol-6-yl)spiro[cyclopropane-1,3′-indol]-2′(1′H)-one] the IC50 (human recombinant PLK4) was 39.8 nM.
Work on `COc1ccc2c(c1)[C@]1(C[C@H]1c1ccc3c(Nc4ncncc4C4CC4)n[nH]c3c1)C(=O)N2` [Example 6, (1R,2S)-2-{3-[(5-cyclopropylpyrimidin-4-yl)amino]-1H-indazol-6-yl}-5′-methoxyspiro[cyclopropane-1,3′-indol]-2′(1′H)-one] yielded an IC50 (human recombinant PLK4) of 18.2 nM.
`COc1ccc2c(c1)[C@]1(C[C@H]1c1ccc3c(Nc4c(C)nn(C)c4C)n[nH]c3c1)C(=O)N2` [Example 21, (1R,2S)-5′-methoxy-2-{3-[(1,3,5-trimethyl-1H-pyrazol-4-yl)amino]-1H-indazol-6-yl)spiro[cyclopropane-1,3′-indol]-2′(1′H)-one] was tested, and the IC50 (human recombinant PLK4) was 41.7 nM.
For `COc1ccc2c(c1)[C@]1(C[C@H]1c1ccc3c(Nc4cccc5c4OCC5O)n[nH]c3c1)C(=O)N2` (stereo in doubt) [Example 27, 2-{3-[(3-hydroxy-2,3-dihydro-1-benzofuran-7-yl)amino]-1H-indazol-6-yl)-5′-methoxyspiro[cyclopropane-1,3′-indol]-2′(1′H)-one], the IC50 (human recombinant PLK4) was 2.08 nM.
`COc1ccc2c(c1)[C@]1(C[C@H]1c1ccc3c(Nc4ncncc4Cl)n[nH]c3c1)C(=O)N2` (racemic) [Example 3, racemic-2-{3-[(5-Chloropyrimidin-4-yl)amino]-1H-indazol-6-yl}-5′-methoxyspiro[cydopropane-13′-indol]-2′(1′H)-one] was tested, and the IC50 (human recombinant PLK4) was 9.95 nM.
`COc1ccc2c(c1)[C@]1(C[C@H]1c1ccc3c(Nc4cccc5c4OC[C@@H]5O)n[nH]c3c1)C(=O)N2` [Example 29, (1R,2S)-2-(3-{[(3R)-3-hydroxy-2,3-dihydro-1-benzofuran-7-yl]amino)-1H-indazol-6-yl)-5′-methoxyspiro[cyclopropane-1,3′-indol]-2′(1′H)-one] was tested, and the IC50 (human recombinant PLK4) was 5.97 nM.
`COc1ccc2c(c1)[C@]1(C[C@H]1c1ccc3c(Nc4cccc5ccoc45)n[nH]c3c1)C(=O)N2` [Example 26] was tested, and the IC50 (human recombinant PLK4) was 3.85 nM.
